Consider one compound from article PMC8998978, “Toward a Treatment of Cancer: Design and In Vitro/In Vivo Evaluation of Uncharged Pyrazoline Derivatives as a Series of Novel SHP2 Inhibitors” (International Journal of Molecular Sciences, 2022).

One test concerns 95-D cells. Put plainly: Cell viability assay (SRB). Type of test: cell-based. The note with it: Homo sapiens, 72 h. An excerpt:
(§1) Human colon cancer cell line HCT116, hepatoma cell lines HepG2 and BEL-7402, lung adenocarcinoma cell lines NCI-H1975 and 95-D, pancreatic cancer cell line Panc-1, breast cancer cell line MDA-MB-231, NSCLC cell line NCI-H1299, ovarian cancer cell line SK-OV-3, leukemia cell line K562, glioma cell line U87, colon epithelial cell line NCM460 and umbilical vein endothelial cell line HUVEC were purchased from the Institute of Biochemistry and Cell Biology, Chinese Academy of Sciences (Shanghai, China). HCT116 cell line was cultured in McCoy’s 5A medium (Hyclone, Logan, UT, USA). HepG2, 95-D, Panc-1, MDA-MB-231, BEL-7402, SK-OV-3, U87 and NCM460 cell lines were cultured in DMEM-High glucose medium (Hyclone, Logan, UT, USA). NCI-H1975, NCI-H1299 and HUVEC cell lines were cultured in RPMI 1640 medium (Hyclone, Logan, UT, USA). K562 cell line was cultured in IMDM medium (Hyclone, Logan, UT, USA). All of them were incubated in the medium with 10% fetal bovine serum (PAN, Adenbach, Bavaria, Germany) and 1% penicillin-streptomycin (Gibco-Invitrogen, Grand Island, NY, USA) under a humidified atmosphere of 5% CO2 at 37 °C.
(§2) The inhibition rate of cell viability was detected by 3-(4,5-dimethyl-2-thiazolyl)-2,5-diphenyl-2-H-tetrazolium bromide (MTT, Solarbio, Beijing, China) or Sulforhodamine B (SRB, Sigma-Aldrich, St. Louis, MO, USA) assay. In MTT assay, the suspension cells were inoculated in 96-well plates at the density of 5000 cells per well, and incubated with 4o at indicated concentrations dissolved in DMSO for 72 h. Each well was incubated with MTT solution (5 mg/mL) at 37 °C for 4 h, DMSO was added and incubated overnight at 37 °C. The absorbance at 570 nm was measured in a multimode reader (Berthold Technologies, Germany). In SRB assay, adherent cells were seeded in 96-well plates (5000 cells per well). After 24 h, the cells were treated with 4o for 72 h, and then fixed with precooling 10% TCA solution at 4 °C for 1 h. After washing and drying, SRB staining was added for 15 min, and then washed and dried by 1% acetic acid. Finally, Tris–HCl solution was added, and the absorbance at 515 nm was detected in a multimode reader (Berthold Technologies, Germany).

For another test, the system named is BEL-7402 cells. Put plainly: Cell viability assay (SRB). The settings on record: Homo sapiens, BEL-7402, 72 h. Type of test: cell-based.
Source text: as §1, §2

The next test concerns HepG2 cells. As to the kind of experiment: Cell viability assay (SRB). The settings on record: Homo sapiens, HepG2, 72 h. The format is cell-based.
Source text: as §1, §2

In another test the test system is MDA-MB-231 cells. Put plainly: Cell viability assay (SRB). The format is cell-based. The settings on record: Homo sapiens, MDA-MB-231, 72 h.
Source text: as §1, §2

The subject of another test is NCI-H1299 cells. As to the kind of experiment: Cell viability assay (SRB). Type of test: cell-based. The note with it: Homo sapiens, NCI-H1299, 72 h.
Source text: as §1, §2

The test system of another test is NCI-H1975 cells. Put plainly: Cell viability assay (SRB). The format is cell-based. The note with it: Homo sapiens, NCI-H1975, 72 h.
Source text: as §1, §2

For the next test, the system named is Panc-1 cells. Put plainly: Cell viability assay (SRB). The note with it: Homo sapiens, Panc-1, 72 h. Type of test: cell-based.
Source text: as §1, §2

A further test has as its system SK-OV-3 cells. As to the kind of experiment: Cell viability assay (SRB). Type of test: cell-based. The note with it: Homo sapiens, SK-OV-3, 72 h.
Source text: as §1, §2

In a further test the test system is U87 cells. Put plainly: Cell viability assay (SRB). The format is cell-based. The note with it: Homo sapiens, U-87 MG, U87, 72 h.
Source text: as §1, §2

For test [1], the system named is HCT116 cells. As to the kind of experiment: Colony formation assay. Type of test: cell-based, human. The settings on record: 4o 0.625, 1.25 and 2.5 μM, 8 days. The protocol: HCT116 cells were seeded in 6-well plates at a density of 500 cells per well. After 24 h, cells were treated with different concentrations of 4o for 8 days. Subsequently, the culture medium was removed and the cells were fixed with methanol for 3 min, and stained with crystal violet (Solarbio, Beijing, China) for 15 min. Finally, colonies were counted and photographed.

The subject of test [2] is HCT116 cells. Put plainly: Hoechst 33258 staining. The format is cell-based, human. The note with it: HCT116, 4o 2.5, 5 and 10 μM, 24 h. The protocol: HCT116 cells were treated with different concentrations of 4o for 24 h, then were stained with Hoechst 33,258 (Beyotime Institute of Biotechnology, Shanghai, China). The nuclear morphology was observed under fluorescence microscope.

Test [3] deals with RAS/MAPK signaling pathway in HCT116 cells. As to the kind of experiment: RAS activation assay and p-Erk Western blotting. Type of test: cell-based, human. The note with it: HCT116, 4o 2.5, 5 and 10 μM, 12 h, dose-dependent, versus DMSO. The protocol: HCT116 cells were harvested, lysed on ice in RIPA buffer (Beyotime Institute of Biotechnology, Shanghai, China) and boiled. Protein concentration was measured by BCA protein assay kit (Beyotime Institute of Biotechnology, Shanghai, China). The protein samples were separated by SDS-PAGE and transferred to the membrane (Pall, New York, NY, USA). Afterwards, the membrane was immunoblotted with the corresponding primary antibody (C-parp (#5625), C-cas9 (#9505), C-cas3 (#9661), Bcl-2 (#4223), Bax (#5023), SHP2 (#3752), P-Erk1/2 (#9101) and Erk1/2 (#9102), 1:1000, Cell Signaling Technology, Danvers, MA, USA; Tubulin (#ET1602-4), 1:5000, HUABIO, Hangzhou, China) and the appropriate HRP-conjugated secondary antibody, and determined with ECL detection reagent (Thermo Scientific, Waltham, MA, USA).
Active RAS (RAS-GTP) was pulled down from HCT116 cells. Cells were seeded in 6-well plates and treated with different concentrations of 4o for 12 h after overnight serum starvation. Cells were stimulated with 100 ng/mL hEGF for 5 min before cell lysis. On the basis of protein extraction and quantification, RAS activation assay biochem kit (Cytoskeleton Inc., Denver, CO, USA) was used for detection according to the requirements of manufacturers.
A general note: In western blotting, separated proteins are transferred to a membrane and probed.

As usually defined, the IC50 is the concentration that inhibits the measured activity by half. A lower IC50 goes with inhibition by little substance. Consider `CCOc1ccc(Oc2ccc(C3=NN(C4=NC(=O)CS4)C(c4cc(O)c(O)c(Br)c4Br)C3)cc2)cc1` (stereo not drawn) [Compound 4o, 2-(5-(2,3-dibromo-4,5-dihydroxyphenyl)-3-(4-(4-ethoxyphenoxy)phenyl)-4,5-dihydro-1H-pyrazol-1-yl)thiazol-4(5H)-one], for which the IC50 came out at 5.42 ± 0.44 µM with 95-D cells; 7.38 ± 0.31 µM in the test with BEL-7402 cells; 3.8 ± 0.22 µM in the test on HepG2 cells; 6.34 ± 0.37 µM in the test on MDA-MB-231 cells; 7.42 ± 0.43 µM in the test on NCI-H1299 cells; 5.29 ± 0.6 µM in the test with NCI-H1975 cells. For the same compound, the IC50 was 6.3 ± 0.5 µM with Panc-1 cells, 8.44 ± 0.45 µM in the test with SK-OV-3 cells and 10.2 ± 0.39 µM in the test on U87 cells. In addition, in the test with HCT116 cells [1], the “Colony formation of HCT116 cells” value is on record as “significantly inhibited the colony formation”. Moreover, in the test on HCT116 cells [2], the “Nuclear morphology (Hoechst 33,258 staining)” value was “chromatin was condensed and apoptosis occurred”. In addition, the “Levels of RAS-GTP and p-Erk” value in test [3] is given as “decreased”.
